Test systems include ACHN; HCT-15; HOP-92; Hs-578T; IGROV-1; KM12; LOX IMVI; NCI/ADR-RES; OVCAR-8; RPMI-8226; SK-MEL-28; SK-OV-3; SN12C; SNB-19; SR; U-251; UACC-62; UO-31; OVCAR-4; SK-MEL-2.
Assay in all cases: growth of human tumour cells (NCI), 48 h

The values that follow come from ChEMBL document CHEMBL1201862, “PubChem BioAssay data set” (2004).

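Five concentrations, 48 hours, 96-well plates. GI50 = concentration required for 50% inhibition of growth.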 Activity calls are given as the source filed them. No stated cut-off is given here; in the data, active = GI50 up to about 1.1 µM and inactive = higher. Where a SMILES comes first, the peptide text is derived from it.

Consider `Nc1nc(N)c2nnn(C[C@H]3CC[C@@H](CO)C3)c2n1`, for which the GI50 in the experiment on ACHN was > 100 µM (inactive); with HCT-15, over 100 µM; with HOP-92 it was > 100 µM (inactive); in the experiment with Hs-578T, > 100 µM (inactive); in the experiment on IGROV-1, 54.7 µM (inactive); in the experiment with KM12, > 100 µM (inactive). Further, the GI50 in the experiment on LOX IMVI, in the experiment on NCI/ADR-RES, with OVCAR-8, in the experiment with RPMI-8226, with SK-MEL-28 and in the experiment with SK-OV-3 was > 100 µM (inactive) in each case. Also, the GI50 in the experiment on SN12C was 38.5 µM (inactive); in the experiment with SNB-19 it was > 100 µM (inactive); in the experiment with SR, > 100 µM (inactive); with U-251 it was > 100 µM (inactive); in the experiment with UACC-62 it was > 100 µM (inactive); in the experiment with UO-31 it was > 100 µM (inactive).

Turning to `[N-]=[N+]=NC[C@H]1OCO[C@H](CN=[N+]=[N-])[C@@H](OCCOCCCl)[C@@H]1OCCOCCCl`, the GI50 in the experiment with HCT-15 was over 100 µM; with Hs-578T, 80 µM (inactive); with IGROV-1, > 100 µM (inactive); in the experiment on KM12 it was > 100 µM (inactive); in the experiment on LOX IMVI, > 100 µM (inactive); in the experiment with NCI/ADR-RES, > 100 µM (inactive). Besides, the GI50 in the experiment with OVCAR-4, with OVCAR-8, in the experiment on RPMI-8226, in the experiment with SK-MEL-28, in the experiment with SK-MEL-2 and in the experiment on SK-OV-3 was > 100 µM (inactive) each time. Besides, the GI50 was > 100 µM (inactive) in the experiment with SN12C; > 100 µM (inactive) with SNB-19; > 100 µM (inactive) in the experiment on SR; > 100 µM (inactive) in the experiment on U-251; 80 µM (inactive) with UACC-62; 30.1 µM (inactive) with UO-31.

Take `Fc1nc(-c2c3ccccc3c3sc4ccccc4n23)nc(N2CCOCCOCCOCCOCC2)n1`: the GI50 with ACHN was > 100 µM (inactive); with HCT-15 it was over 100 µM; in the experiment with HOP-92, 20.9 µM (inactive); in the experiment with Hs-578T, 37.3 µM (inactive); with IGROV-1, > 100 µM (inactive); in the experiment with KM12, > 100 µM (inactive). Besides, the GI50 is > 100 µM (inactive) with LOX IMVI; 56.8 µM (inactive) with NCI/ADR-RES; > 100 µM (inactive) with OVCAR-4; 40.2 µM (inactive) in the experiment on OVCAR-8; > 100 µM (inactive) with RPMI-8226; > 100 µM (inactive) in the experiment on SK-MEL-28. Besides, the GI50 in the experiment on SK-OV-3 was 71 µM (inactive); with SN12C, > 100 µM (inactive); with SNB-19, 35.6 µM (inactive); in the experiment with SR, 11.2 µM (inactive); in the experiment with U-251, 44.8 µM (inactive); in the experiment with UACC-62, > 100 µM (inactive). Besides, the GI50 in the experiment on UO-31 was > 100 µM (inactive).

As to `c1csc(-c2cscc2-c2cccs2)c1`, the GI50 in the experiment with ACHN was > 100 µM (inactive); with HCT-15 it was 35.8 µM; in the experiment with HOP-92, 78.5 µM (inactive); in the experiment with Hs-578T, 54.8 µM (inactive); with IGROV-1, 67.8 µM (inactive); in the experiment on KM12 it was 22.3 µM (inactive). In addition, the GI50 in the experiment with LOX IMVI is 43.2 µM (inactive); with NCI/ADR-RES, 42.9 µM (inactive); in the experiment on OVCAR-4, 46 µM (inactive); in the experiment on OVCAR-8, 57.4 µM (inactive); in the experiment with RPMI-8226, 43.6 µM (inactive); in the experiment with SK-MEL-28, > 100 µM (inactive). For the same compound, the GI50 was 32.9 µM (inactive) in the experiment on SK-OV-3; > 100 µM (inactive) with SN12C; > 100 µM (inactive) with SNB-19; 27.7 µM (inactive) in the experiment with SR; > 100 µM (inactive) with U-251; 72.3 µM (inactive) in the experiment with UACC-62. In the experiment with UO-31, the GI50 is 58.2 µM (inactive).

Consider `CC(=O)OC1=C(CC(C)(C)C)C(=O)c2ccccc2C1=O`, for which the GI50 in the experiment with ACHN was 35.6 µM (inactive); with HCT-15 it was 31.8 µM; with Hs-578T it was 14.5 µM (inactive); with IGROV-1, 34.2 µM (inactive); with KM12 it was 32.2 µM (inactive); in the experiment on LOX IMVI, 47.5 µM (inactive). The GI50 with NCI/ADR-RES is 18.1 µM (inactive); with OVCAR-4, 37.8 µM (inactive); with OVCAR-8, 27.2 µM (inactive); in the experiment with RPMI-8226 it was 17.1 µM (inactive); in the experiment on SK-MEL-28, 42.4 µM (inactive); in the experiment on SK-MEL-2, 31.8 µM (inactive). Further, the GI50 with SK-OV-3 is 25.3 µM (inactive); in the experiment on SNB-19, 42.6 µM (inactive); in the experiment with SR, 20.5 µM (inactive); in the experiment with U-251, 44.8 µM (inactive); in the experiment with UACC-62, 32.1 µM (inactive); with UO-31 it was 33.4 µM (inactive).

Turning to `CC(C)C(/C=C/c1ccc(Cl)c(Cl)c1)=N\NC(=O)N/N=C(/C=C/c1ccc(Cl)c(Cl)c1)C(C)C`, the GI50 with ACHN was > 100 µM (inactive); in the experiment with HCT-15, over 100 µM; in the experiment on HOP-92 it was > 100 µM (inactive); with Hs-578T it was > 100 µM (inactive); in the experiment with IGROV-1, > 100 µM (inactive); in the experiment with KM12 it was > 100 µM (inactive). The GI50 in the experiment with LOX IMVI, in the experiment with NCI/ADR-RES, in the experiment on OVCAR-4, with OVCAR-8, with RPMI-8226 and in the experiment with SK-MEL-28 was > 100 µM (inactive) throughout. Moreover, the GI50 in the experiment with SK-OV-3 was > 100 µM (inactive); with SN12C, > 100 µM (inactive); with SNB-19 it was > 100 µM (inactive); in the experiment on SR, 86.1 µM (inactive); in the experiment with U-251 it was > 100 µM (inactive); with UACC-62, > 100 µM (inactive). Moreover, the GI50 in the experiment on UO-31 is > 100 µM (inactive).

`COc1cc(/C=C2\N=C(c3ccccc3)N(/N=C3\C(=O)Nc4ccccc43)C2=O)cc(OC)c1OC`: the GI50 was > 100 µM (inactive) in the experiment with ACHN; over 100 µM with HCT-15; 40.3 µM (inactive) with HOP-92; 54 µM (inactive) in the experiment on Hs-578T; > 100 µM (inactive) with IGROV-1; > 100 µM (inactive) in the experiment with KM12. In addition, the GI50 in the experiment with LOX IMVI is 90.8 µM (inactive); in the experiment on NCI/ADR-RES it was > 100 µM (inactive); with OVCAR-4, 61.9 µM (inactive); in the experiment with OVCAR-8, 94.2 µM (inactive); in the experiment with SK-MEL-28 it was > 100 µM (inactive); with SK-MEL-2, > 100 µM (inactive). For the same compound, the GI50 in the experiment on SK-OV-3 is > 100 µM (inactive); with SN12C, > 100 µM (inactive); with SNB-19, > 100 µM (inactive); in the experiment with SR, 38.6 µM (inactive); with U-251, > 100 µM (inactive); with UACC-62, > 100 µM (inactive). Moreover, the GI50 with UO-31 was > 100 µM (inactive).

With `CCOC(=O)C1C(c2ccc3c(c2)OCO3)c2c(n[nH]c2O)CC1(O)OCC` (stereo unspecified), the GI50 was > 100 µM (inactive) in the experiment with ACHN; over 100 µM in the experiment with HCT-15; > 100 µM (inactive) in the experiment with HOP-92; > 100 µM (inactive) in the experiment on Hs-578T; > 100 µM (inactive) in the experiment with IGROV-1; > 100 µM (inactive) with KM12. Besides, the GI50 with LOX IMVI, with NCI/ADR-RES, in the experiment with OVCAR-4, in the experiment on OVCAR-8, in the experiment with RPMI-8226 and in the experiment with SK-MEL-28 was > 100 µM (inactive) each time. For the same compound, the GI50 is > 100 µM (inactive) in the experiment with SK-MEL-2; > 100 µM (inactive) in the experiment with SN12C; > 10 µM (inactive) with SNB-19; > 100 µM (inactive) in the experiment with SR; > 100 µM (inactive) with U-251; > 100 µM (inactive) in the experiment with UACC-62. Also, in the experiment on UO-31, the GI50 is > 100 µM (inactive).

Turning to `CCc1c(Cl)nc(Cl)nc1Cl`, the GI50 was 0.076 µM (active) in the experiment on ACHN; 0.0348 µM in the experiment with HCT-15; 0.565 µM (active) in the experiment on HOP-92; 1.13 µM (inactive) in the experiment on Hs-578T; 0.542 µM (active) in the experiment on IGROV-1; 1.08 µM (active) in the experiment with KM12. The GI50 in the experiment on LOX IMVI was 0.0199 µM (active); in the experiment on NCI/ADR-RES, 0.382 µM (active); in the experiment with OVCAR-4, 0.867 µM (active); in the experiment on OVCAR-8 it was 0.299 µM (active); in the experiment with RPMI-8226, 0.049 µM (active); in the experiment with SK-MEL-28, 1.63 µM (inactive). For the same compound, the GI50 in the experiment on SK-OV-3 is 3.07 µM (inactive); in the experiment with SN12C, 0.333 µM (active); in the experiment on SNB-19, 1.45 µM (inactive); with SR, 0.0188 µM (active); in the experiment with U-251, 0.331 µM (active); in the experiment on UACC-62, 0.528 µM (active). Further, in the experiment with UO-31, the GI50 is 1.38 µM (inactive).

As to `O=c1[nH]cnc2c1ncn2[C@@H]1C[C@H]1CO`, the GI50 in the experiment with ACHN is > 100 µM (inactive); with HCT-15, over 100 µM; in the experiment on HOP-92 it was > 100 µM (inactive); in the experiment with Hs-578T, > 100 µM (inactive); with IGROV-1, > 100 µM (inactive); in the experiment on KM12, > 100 µM (inactive). For the same compound, the GI50 with LOX IMVI, in the experiment with NCI/ADR-RES, with OVCAR-4, in the experiment with OVCAR-8, in the experiment on RPMI-8226 and in the experiment on SK-MEL-28 was > 100 µM (inactive) each time. The GI50 in the experiment on SK-MEL-2, in the experiment on SN12C, in the experiment with SNB-19, with SR, in the experiment on U-251 and in the experiment with UACC-62 was > 100 µM (inactive) each time. In the experiment on UO-31, the GI50 was > 100 µM (inactive).

With `CC(C)CC(NC(=O)C(Cc1ccccc1)NC(=O)C(Cc1c[nH]c2ccccc12)NC(=O)CNC(=O)C(N)Cc1ccc(O)cc1)C(=O)O` (stereo unspecified) (H-YGWFL-OH; configuration not given here), the GI50 in the experiment on ACHN is 44.5 µM (inactive); in the experiment with HCT-15 it was 69 µM; with HOP-92 it was 14 µM (inactive); in the experiment on Hs-578T, 42 µM (inactive); in the experiment with IGROV-1 it was 58.7 µM (inactive); in the experiment on KM12, 24.6 µM (inactive). For the same compound, the GI50 is 67.6 µM (inactive) with NCI/ADR-RES; 30.2 µM (inactive) with OVCAR-4; 46.5 µM (inactive) with OVCAR-8; 24.5 µM (inactive) with RPMI-8226; 95.3 µM (inactive) with SK-MEL-28; 81.3 µM (inactive) in the experiment on SK-MEL-2. The GI50 in the experiment on SK-OV-3 is > 100 µM (inactive); in the experiment with SN12C, 48.6 µM (inactive); in the experiment with SNB-19 it was 51.6 µM (inactive); with SR, 32.4 µM (inactive); in the experiment on U-251 it was 34.6 µM (inactive); in the experiment on UACC-62, 67.3 µM (inactive). The GI50 in the experiment with UO-31 is 81.3 µM (inactive).
